Assay results reported in PubChem BioAssay AID1963827 (Molecular Pharmacology Branch, DTP, NCI, 2024).
pIC50: −log10 of the molar value.

Tested on: 994946-033-R-J1-PDC complex spheroid viability
Assay: Anticancer human tumor 994946-033-R-J1-PDC patient-derived melanoma cell line growth inhibition [POLQ]
Details: for pIC50: curve of first compound; for viability, T/C: stronger effect = lower value
How it was run: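 Complex spheroid viability model combining PDC tumour cells with endothelial (HUVEC) and MSC stromal cells. Novobiocin, ART-558 or RP6685 were tested singly and in combination with standard and investigational anticancer drugs. Each was titrated in half-log steps from near clinical Cmax, or from 10 microM where Cmax was unknown.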
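Also: spheroids exposed to drugs for 7 days.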
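For viability, T/C in this document: 100% = DMSO vehicle treated spheroids.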

Cn1ncnc1[C@H]1c2n[nH]c(=O)c3cc(F)cc(c23)N[C@@H]1c1ccc(F)cc1 + Cc1cccc(N(C)C(=O)C2C(O)CCN2c2nc(C)cc(C(F)(F)F)c2C#N)c1
pIC50 (second compound 0.0316 µM): < 7.00
pIC50 (second compound 0.1 µM): < 7.00
pIC50 (second compound 0.316 µM): < 7.00
pIC50 (second compound 1 µM): < 7.00
pIC50 (second compound 3.16 µM): < 7.00
pIC50 (second compound 10 µM): < 7.00
viability, T/C (second compound 0.0316 µM, first compound 0.000316 µM): 105%
viability, T/C (second compound 0.0316 µM, first compound 0.001 µM): 85.7%
viability, T/C (second compound 0.0316 µM, first compound 0.00316 µM): 86.8%
viability, T/C (second compound 0.0316 µM, first compound 0.01 µM): 77.2%
viability, T/C (second compound 0.0316 µM, first compound 0.0316 µM): 87.7%
viability, T/C (second compound 0.0316 µM, first compound 0.1 µM): 75.1%
viability, T/C (second compound 0.1 µM, first compound 0.000316 µM): 81.5%
viability, T/C (second compound 0.1 µM, first compound 0.001 µM): 107%
viability, T/C (second compound 0.1 µM, first compound 0.00316 µM): 78.3%
viability, T/C (second compound 0.1 µM, first compound 0.01 µM): 87.8%
viability, T/C (second compound 0.1 µM, first compound 0.0316 µM): 88.3%
viability, T/C (second compound 0.1 µM, first compound 0.1 µM): 64.2%
viability, T/C (second compound 0.316 µM, first compound 0.000316 µM): 115%
viability, T/C (second compound 0.316 µM, first compound 0.001 µM): 118%
viability, T/C (second compound 0.316 µM, first compound 0.00316 µM): 77.8%
viability, T/C (second compound 0.316 µM, first compound 0.01 µM): 99.2%
viability, T/C (second compound 0.316 µM, first compound 0.0316 µM): 74.8%
viability, T/C (second compound 0.316 µM, first compound 0.1 µM): 56%
viability, T/C (second compound 1 µM, first compound 0.000316 µM): 134%
viability, T/C (second compound 1 µM, first compound 0.001 µM): 91%
viability, T/C (second compound 1 µM, first compound 0.00316 µM): 95.9%
viability, T/C (second compound 1 µM, first compound 0.01 µM): 80.2%
viability, T/C (second compound 1 µM, first compound 0.0316 µM): 76.9%
viability, T/C (second compound 1 µM, first compound 0.1 µM): 66.9%
viability, T/C (second compound 3.16 µM, first compound 0.000316 µM): 111%
viability, T/C (second compound 3.16 µM, first compound 0.001 µM): 111%
viability, T/C (second compound 3.16 µM, first compound 0.00316 µM): 98%
viability, T/C (second compound 3.16 µM, first compound 0.01 µM): 76%
viability, T/C (second compound 3.16 µM, first compound 0.0316 µM): 87.3%
viability, T/C (second compound 3.16 µM, first compound 0.1 µM): 78.7%
viability, T/C (second compound 10 µM, first compound 0.000316 µM): 109%
viability, T/C (second compound 10 µM, first compound 0.001 µM): 65%
viability, T/C (second compound 10 µM, first compound 0.00316 µM): 95.7%
viability, T/C (second compound 10 µM, first compound 0.01 µM): 106%
viability, T/C (second compound 10 µM, first compound 0.0316 µM): 74.8%
viability, T/C (second compound 10 µM, first compound 0.1 µM): 69.3%
